The values that follow come from paper PMC5048153 (Scientific Reports, 2016).

Some results are limits rather than exact numbers.

The conditions of data set [1]: PAMPA-BBB literature value ref 38; cited from earlier work. (In general: PAMPA measures passive passage across an artificial lipid membrane.)
The next data set deals with T1, 5-HT2C receptor (Homo sapiens, UniProt P28335).
T1 sequence (P28335 33-458): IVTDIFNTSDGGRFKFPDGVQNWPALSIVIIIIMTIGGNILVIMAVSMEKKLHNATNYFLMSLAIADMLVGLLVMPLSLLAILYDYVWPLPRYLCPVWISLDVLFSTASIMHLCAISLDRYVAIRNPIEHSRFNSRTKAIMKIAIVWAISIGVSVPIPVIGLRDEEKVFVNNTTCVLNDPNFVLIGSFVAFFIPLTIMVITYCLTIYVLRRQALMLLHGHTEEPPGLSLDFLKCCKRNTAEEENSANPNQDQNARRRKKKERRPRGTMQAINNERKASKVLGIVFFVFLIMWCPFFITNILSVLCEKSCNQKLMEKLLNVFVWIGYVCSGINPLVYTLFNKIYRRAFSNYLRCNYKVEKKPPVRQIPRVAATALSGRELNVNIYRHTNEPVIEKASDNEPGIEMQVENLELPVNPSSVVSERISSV
Description: FLIPR assay for 5-HT2C antagonism. The data set is classed as cell-based.

A further data set relates to H9C2 cells. Description: Cytotoxicity on H9C2 cells (MTT). The format is cell-based. As to conditions: Rattus norvegicus, 48 h. On the procedure: Human normal hepatic L02 cells, human embryonic kidney cell line 293 cells (HEK293) and Rattus myoblast cell line H9C2 cells were respectively seeded in 96-well plates at a density of 4 × 10^3 cells per well and cultured in the 1640 or DMEM medium, with the supplement of 10% fetal bovine serum, penicillin (100 unit/ml), streptomycin (100 μg/ml) in a humidified incubator with 5% CO2 for 24 h. After adherence, L02, HEK293 and H9C2 cells were exposed to different compounds for another 48 h. The cytotoxicities of the compounds were evaluated by MTT method.

For data set [2], the system named is SD rats. Description: Forced swim test. The data set is classed as in vivo, rat. The note with it: ig. 32 mg/kg/day, days 2–15. On the procedure: The detailed procedures were performed according to our previous studies. Briefly, each SD rat was placed in a vertical Plexiglas cylinder (height 50 cm; diameter 20 cm) containing 18 cm height of water at 25 ± 2 °C and was forced to swim individually for 15 min on1st day. From 2nd day to 15th day, the rats were intragastrically administered compound 6a-1 or control drugs at dosage of 32 mg/kg/day. On the 2nd day and 15th day, 30 minutes after drug treatment, each rat was placed again into water and forced to swim for 6 min. The rat behavior was recorded by a video camera placed directly facing cylinders. The duration of immobility during the last 4 minutes was analyzed by Xeye Animal behavior analysis system (Xeye Aba V3.2). The rat was considered as immobile when its moving speed was less than 20 mm/s. The dosage of is 32 mg/kg every day. The water in the cylinder was changed each trial. After each exposure, animals were partially dried with a towel and returned to their home cages. All tests were performed in a quiet room.

Data set [3] deals with SD rats. Description: Open field locomotor activity. The format is in vivo, rat. As to conditions: ig. 32 mg/kg/day, days 2–15, vs untreated rats. How it is done:
The detailed procedures were performed according to our previous studies. In brief, each SD rat was placed at the center of the open field (50 × 50 cm^2 chamber, 50-cm-high walls, with a 25 cm^2 area in the middle of floor defined as the central square) for 6 min in a quiet room. The animals were gently placed in the center of the platform and were allowed to explore the surroundings. A camera was installed above the center of the field. Immediately after a rat was placed at the center in the open field, the movements and position of the animals were recorded and registered automatically by computerized system. Next test was performed after cleaning the chamber. The traveled tracks of rats were recorded for 6 minutes and the videos of the last 4 minutes were analyzed also by Xeye Animal behavior analysis system.

The test system of data set [4] is corticosterone injured PC12 cells. Description: Real-time PCR BDNF mRNA level. The data set is classed as cell-based, rat. As to conditions: 200 µM corticosterone and 5 µM drug. Background: Real-time PCR tracks product formation cycle by cycle.
Data set [5] concerns corticosterone-injured PC12 cells. Description: Intracellular calcium ion concentration analysis (Fura-2 AM). As to conditions: 200 µM corticosterone and 5 µM drug. The format is cell-based, rat. How it is done: The detailed procedures were performed according to the reported literatures. In brief, calcium ion concentration was measured by Fura-2 AM (Thermo Scientific). PC12 cells were treated with compound 6a-1 for 48 hours. Then cells were detached with 0.25% trypsin and centrifuged at 1000 r/min for 5 minutes. The supernatant was removed and the cells were stained with Fura-2 AM according to the manufacturer’s instructions. Fluorescence intensity of labeled cells was photographed for 25 random sights each group using Thermo Scientific Array Scan Infinity.
In general terms: A change in cytosolic calcium serves as a functional read-out for many receptors and channels.

Data set [6] shares this test system. Description: Protective effects on corticosterone-injured PC12 cells (MTT). The format is cell-based, rat. More on the design: key to PR (protection rate), Table S1: compounds did not shown protection effects on corticosterone-injured PC12 cells. The note with it: 24 h after treatment; for PR (protection rate), Table S1: 1.25µM. How it is done:
PC12 cells were purchased from American Type Culture Collection and were maintained in DMEM medium supplemented with penicillin (100 unit/ml), streptomycin (100 μg/ml), 5% fetal bovine serum (FBS), and 10% horse serum at 37 °C in humidified atmosphere with 5% CO2. The detailed procedures were performed referring to the reported literatures. Briefly, PC12 cells of logarithmic growth phase were collected, re-suspended and then seeded at a density of 1 × 10^5 cells per well in 96-well plates and cultured in the DMEM medium with 5% horse serum, 10% FBSfor 24 h.
After incubation with compounds, 20 μl of 5 mg/ml MTT solution was added to each well and cultured at 37 °C for 2 h–4 h. Then, the culture medium was removed, and 150 μl dimethyl sulfoxide(DMSO) was added to each well for 15 min at room temperature. The absorbance of each well was measured at 570 nm using a microplate reader. The protective rates (PR) were calculated according to equation (1).

The next data set deals with HEK293 cells. Description: Cytotoxicity on HEK293 cells (MTT). The data set is classed as cell-based, human. As to conditions: after treatment; for inhibition at 100 µM: Homo sapiens, HEK293, 100μM, read-out: IR (inhibitory rate) HEK293; for IR (inhibitory rate) HEK293: 100μM. How it is done:
(§1) Human normal hepatic L02 cells, human embryonic kidney cell line 293 cells (HEK293) and Rattus myoblast cell line H9C2 cells were respectively seeded in 96-well plates at a density of 4 × 10^3 cells per well and cultured in the 1640 or DMEM medium, with the supplement of 10% fetal bovine serum, penicillin (100 unit/ml), streptomycin (100 μg/ml) in a humidified incubator with 5% CO2 for 24 h. […] The cytotoxicities of the compounds were evaluated by MTT method.

The test system of another data set is L02 cells. Description: Cytotoxicity on L02 cells (MTT). As to conditions: after treatment; for inhibition at 100 µM: Homo sapiens, L02, 100μM, read-out: IR (inhibitory rate) L02; for IR (inhibitory rate) L02: 100μM. The data set is classed as cell-based, human. On the procedure: as §1

Description for 5-HT2C receptor: Seed cells at the density of 10 K cell/well, 37 °C, 5% CO2 incubate for 16–24 hours, then loading cells with 30 ul of Calcium 5 and 37 °C, 5% CO2 incubate for 1 hour. After transfer compound to compound plate with 30 ul Assay Buffer by Echo, add 15 ul/well of compound, incubate for 10 mins.

On to `O=C1Nc2ccc(Cl)cc2C(c2ccccc2)=NC1O` (centres unmarked) [Oxazepam], for which the “Pe, Lit.” value in data set [1] is listed as 10 *10^−6 cm/s.

The term IC50 denotes the concentration at which inhibition is half-maximal. For `CC[C@@H](CO)NC(=O)[C@@H]1C=C2c3cccc4c3c(cn4C)C[C@H]2N(C)C1` [Methysergide], the IC50 against 5-HT2C receptor worked out at 25 nM. Further, the inhibition at 100 µM on 5-HT2C receptor (read-out: Inhibition 5-HT2C) was determined as 101%.

For `Cn1c(=O)c2[nH]cnc2n(C)c1=O` [Theophylline], the “Pe, Lit.” value in data set [1] is 0.12 *10^−6 cm/s.

Regarding `COc1cccc2c1C(=O)c1c(O)c3c(c(O)c1C2=O)C[C@@](O)(C(=O)CO)C[C@@H]3O[C@H]1C[C@H](N)[C@H](O)[C@H](C)O1` [Adriamycin], in the data set with H9C2 cells, the IC50 turned out to be 160 ± 20 nM.

As to `CN1C(C(=O)Nc2ccccn2)=C(O)c2ccccc2S1(=O)=O` [Piroxicam], in data set [1], the “Pe, Lit.” value is on record as 2.5 *10^−6 cm/s.

Turning to `CNCCC(Oc1ccc(C(F)(F)F)cc1)c1ccccc1` (centres unmarked) [Fluoxetine], in the data set on SD rats [2], the “mean immobility time reduced compared to the model group” value was 50.7%. In the data set with SD rats [3], this molecule showed an improved travelled distance of 69.8%. In addition, the “BDNF mRNA level increase compared with corticosterone-injured group” value in data set [4] was 32.1%. Moreover, the “fluorescence intensity of free intracellular calcium ion” value in data set [5] was “weaker fluorescence intensity than corticosterone-injured PC12 cells”.

For the molecule `COc1ccc2c(c1)C(CCNC(=O)Nc1ncccc1Br)=NCC2.O=C(O)C(=O)O` [6b-22, 1-(3-Bromopyridin-2-yl)-3-(2-(7-methoxy-3,4-dihydroisoquinolin-1-yl)ethyl)urea oxalate], the “PR (protection rate), Table S1” value in [6] was “-”. Besides, the inhibition at 100 µM in the data set with HEK293 cells came to 46.4%; in the data set with L02 cells, 48.5%.

As for `COc1ccc2c(c1)C(CCNC(=O)Nc1ccc(CC#N)cc1)=NCC2.O=C(O)C(=O)O` [6b-20, 1-(4-(Cyanomethyl)phenyl)-3-(2-(7-methoxy-3,4-dihydroisoquinolin-1-yl)ethyl)urea oxalate], the “PR (protection rate), Table S1” value in data set [6] is reported as “-”. Also, the figures for the inhibition at 100 µM in the data set on HEK293 cells and with L02 cells were 47.8% and 52%, respectively.

In the case of `COc1ccc2c(c1)C(CCNC(=O)Nc1c(C)cc(C#N)cc1C)=NCC2.O=C(O)C(=O)O` [6b-6, 1-(4-Cyano-2,6-dimethylphenyl)-3-(2-(7-methoxy-3,4-dihydroisoquinolin-1-yl)ethyl)urea oxalate], the “PR (protection rate), Table S1” value in [6] is “-”. In addition, the inhibition at 100 µM with HEK293 cells and in the data set on L02 cells was below 20% in each case.

On to `COc1ccc2c(c1)C(CCNC(=O)c1ccc(C(F)(F)F)cc1)=NCC2` [6a-8, N-(2-(7-Methoxy-3,4-dihydroisoquinolin-1-yl)ethyl) -4-(trifluoromethyl) benzamideoxalate], for which the “PR (protection rate), Table S1” value in [6] is “-”. The results for the inhibition at 100 µM in the data set with HEK293 cells and in the data set with L02 cells were 38.4% and 60.6%, respectively.

Consider `COc1ccc2c(c1)C(CCNC(=O)c1cccnc1Cl)=NCC2.O=C(O)C(=O)O` [6a-21, 2-Chloro-N-(2-(7-methoxy-3,4-dihydroisoquinolin-1-yl)ethyl)nicotinamide oxalate], for which, in data set [6], the “PR (protection rate), Table S1” value is on record as 15.2%. In [6] (1.25 μM, 200 μM corticosterone), the “PR (protection rate)” value was “above 10%”. Moreover, the inhibition at 100 µM in the data set with HEK293 cells stood at 49.8%; with L02 cells it was 58.8%.

Turning to “2,6-Difluoro-N-(2-(7-methoxy-3,4-dihydroisoquinolin-1-yl)ethyl)benzamide oxalate [6a-34]”, in data set [6], the “PR (protection rate), Table S1” value is reported as “-”. Also, the “IR (inhibitory rate) HEK293” value in the data set on HEK293 cells is 47.1%. In the data set on L02 cells, the “IR (inhibitory rate) L02” value was 44.0%.

“N-(2-(7-Methoxy-3,4-dihydroisoquinolin-1-yl)ethyl)-4-methylbenzamide oxalate [6a-32]”: in [6], the “PR (protection rate), Table S1” value is recorded as “-”. Besides, in the data set with HEK293 cells, the “IR (inhibitory rate) HEK293” value worked out at 54.8%. Also, the “IR (inhibitory rate) L02” value in the data set with L02 cells is reported as 43.2%.

On to `COc1ccc2c(c1)C(CCNC(=O)c1cccc(C)c1)=NCC2.O=C(O)C(=O)O` [6a-22, N-(2-(7-Methoxy-3,4-dihydroisoquinolin-1-yl)ethyl)-3-methylbenzamide oxalate], for which the “PR (protection rate), Table S1” value in data set [6] is given as “-”. In addition, the values for the inhibition at 100 µM in the data set with HEK293 cells and in the data set with L02 cells were 22.2% and 31.8%, respectively.
